2 compounds from patent US20250145580A1, “AN IMPROVED PROCESS FOR THE PREPARATION OF FERRIC MALTOL” (RK Pharma Inc., priority 2021, published 2025) can be followed below.

The nature of series [1]: Stress Stability study of Polymorphic Form Alpha (PXRD after stress). In kind it is physicochemical.
Series [2] in a line: Stress Stability study of Polymorphic Form RK2 (XRPD after stress). In kind it is physicochemical.

Regarding `Cc1occc(=O)c1[O-].Cc1occc(=O)c1[O-].Cc1occc(=O)c1[O-].[Fe+3]` [Polymorphic Form Alpha, 3-hydroxy-2-methyl-4H-pyrane-4-one iron (III) complex (3:1)], the PXRD entry in series [1] (75% RH, 15 h) is “Form Alpha”; in series [1] (90% RH, 15 h) it was “Form Alpha”; in series [1] (Drying at 30° C., 3 h), “Form Alpha”; in series [1] (Drying at 70° C., 3 h), “Form Alpha”; in series [1] (Drying at 100° C., 3 h), “Form Alpha”; in series [1] (Grinding, 10 min), “Form Alpha”. In addition, the PXRD result in series [1] (Hexane Slurry) and in series [1] (Pressure study (17 Kg/cm2; 15 min)) was “Form Alpha” throughout. The “XRPD pattern after subjecting to various stress conditions” value in series [1] (various stress conditions as mentioned in the Table 1) is “stable”.

As to `Cc1occc(=O)c1[O-].Cc1occc(=O)c1[O-].Cc1occc(=O)c1[O-].[Fe+3]` [Polymorphic Form RK2], the XRPD entry in series [2] (50% RH, 12 h) was “Form RK2”; in series [2] (75% RH, 12 h) it was “Form RK2”; in series [2] (90% RH, 12 h), “Form RK2”; in series [2] (Drying at 100° C., 3 h) it was “Form RK2”; in series [2] (Drying at 150° C., 3 h) it was “Form RK2”; in series [2] (MTBE Slurry, 12 h), “Form RK2”. Moreover, the XRPD result in series [2] (Micronization study) and in series [2] (Pressure study (Pressure: 17.5 Kg/cm^2)) was “Form RK2” each time. Besides, the “XRPD pattern after subjecting to various stress conditions” value in series [2] (various stress conditions as mentioned in the Table 2) is “stable”.
